This test has as its system colitis (colon growth caused by inflammation). The test can be described thus: DNBS-induced colitis in rats (animal model for inflammatory bowel disease). The format is in vivo, male Spregue-Dawley rats. As to conditions: oral once a day for 7 days, rat. On the procedure:
In one experiment, male Spregue-Dawley rats (150-180 gram; Charles River Lab, Boston, Mass.) were kept in filter-topped cages with free access to food and water, and housed in a positive pressure room with controlled temperature and photoperiod during studies. As an animal model for inflammatory bowel disease (e.g., Crohn's disease), colitis (colon growth caused by inflammation) was induced by intracolonic instillation of 25 mg of a hapten reagent, 2,4-dinitrobenzenesulfonic acid (TCI, Japan), in 0.5 ml of 30% vol/vol ethanol. Each rat was first anaesthetized with […]/ethanol was injected into the colon, 8 cm proximal to the anus, with a PE 50 cannula. 2 ml of air was then gently injected through the cannula to ensure that the solution remained in the colon. The rat was then kept in a vertical position for 30 second and returned to its cage. By using the same procedures, rats in the blank-control group received 0.5 ml of 30% ethanol. See Hogaboam, et al., Eur. J. Pharmacol. (1996) 309:261-269. […] Each daily dose contained 3.125 mg to 25 mg of quercetin aglycon for each kilogram of body weight. The weight of each rat was monitored every 24 hours. […] Before removal of each colon, the presence or absence of adhesions between the colon and other organs were recorded upon opening the abdominal cavity. The colon-to-body weight ratio was then calculated for each animal. […]

Turning to `O=c1c(O)c(-c2ccc(O)c(O)c2)oc2cc(O)cc(O)c12` [quercetin aglycon], the “inhibition of colon growth (colon-to-body weight ratio)” value runs as follows: (3.125 mg/kg quercetin aglycon) “failed to do so”; (25 mg/kg quercetin aglycon) “inhibited colon growth”.

Values taken from patent publication US7569239B2, “Antioxidative compositions” (priority 2002, dated 2009).
